Tests used:
flatsedge, rice = assay: Test F flood (paddy) test; format: in vivo, Cyperus iria; conditions: 21 d, scale 0-100
Excerpt: Three plastic pots (ca. 16-cm diameter) per rate were partially filled with sterilized Tama silt loam soil comprising a 35:50:15 ratio of sand, silt and clay and 2.6% organic matter. Separate plantings for each of the three pots were as follows. Seeds from the U.S. of monochoria (Monochoria vaginalis), sedge, umbrella (small-flower umbrella sedge, Cyperus difformis), bulrush, […] bulrush, Scirpus juncoides), and […] (purple […] coccinea), were planted into one 16-cm pot for each rate. Seeds from the U.S. of flatsedge, rice (rice flatsedge, Cyperus iria), sprangletop, Brdd. (bearded sprangletop, Leptochloa fascicularis), one stand of 9 or 10 water seeded rice seedlings (Rice, W.S. Jap, Oryza sativa cv. 'Japonica-[…]' or Rice, W.S. Ind, 'Indica'), and two stands of 3 or 4 seedlings of rice, transplanted (transplanted rice, Oryza sativa cv. 'Japonica-[…]') were planted into one 16-cm pot for each rate. Seeds from the U.S. of barnyardgrass (Echinochloa crus-galli), […] (common […], Alisma plantago-aquatica), and watergrass, late (late watergrass, Echinochloa oryzicola) were planted into one 16-cm pot for each rate. Plantings were sequential so that crop and weed species were at the 2.0 to 2.5-leaf stage at time of treatment. Potted plants were grown in a greenhouse with day/night temperature settings of 30/27° C., and supplemental balanced lighting was provided to maintain a 16-h photoperiod. Test pots were maintained in the greenhouse until test completion. At time of treatment, test pots were flooded to 3 cm above the soil surface, treated by application of test compounds directly to the paddy water, and then maintained at that water depth for the duration of the test. Effects of treatments on rice and weeds were visually evaluated by comparison to untreated controls after 21 d. Plant response ratings, summarized in Table F, are based on a scale of 0 to 100 where 0 is no effect and 100 is complete control. A dash (-) response means no test result.

windgrass = assay: Test C postemergence herbicide test; format: in vivo, Apera spica-venti
Excerpt: At the same time, plants selected from these crop and weed species and also barley (winter barley, Hordeum vulgare), […]), chickweed (common chickweed, Stellaria media), deadnettle (henbit deadnettle, Lamium amplexicaule), and canarygrass (littleseed canarygrass, Phalaris minor) were planted in pots containing Redi-Earth® planting medium (Scotts Company, 14111 Scottslawn Road, Marysville, Ohio 43041) comprising spaghnum peat moss, vermiculite, wetting agent and starter nutrients and treated with postemergence applications of test chemicals formulated in the same manner. Plants ranged in height from 2 to 18 cm (1- to 4-leaf stage) for postemergence treatments. Treated plants and controls were maintained in a greenhouse for 13 to 15 days, after which time all species were compared to controls and visually evaluated. Plant response ratings, summarized in Table C, are based on a scale of 0 to 100 where 0 is no effect and 100 is complete control. A dash (-) response means no test result.

cocklebur = assay: Test E preemergence herbicide test; format: in vivo, Xanthium strumarium; parameters: key: 0 = no effect, 100 = complete control
Excerpt: Seeds of plant species selected from corn (Zea mays), soybean (Glycine max), velvetleaf (Abutilon theophrasti), lambsquarters (Chenopodium album), wild poinsettia (Euphorbia heterophylla), pigweed, palmer (palmer pigweed, Amaranthus palmeri), waterhemp (common waterhemp, Amaranthus rudis), surinam grass (Brachiaria decumbens), crabgrass, large (large crabgrass, Digitaria sanguinalis), crabgrass, Brazil (Brazilian crabgrass, Digitaria horizontalis), panicum, fall (fall panicum, Panicum dichotomiflorum), foxtail, giant (giant foxtail, Setaria faberii), foxtail, green (green foxtail, Setaria viridis), goosegrass (Eleusine indica), johnsongrass (Sorghum halepense), ragweed (common ragweed, Ambrosia elatior), barnyardgrass (Echinochloa crus-galli), sandbur (southern sandbur, Cenchrus echinatus), arrowleaf […] rhombifolia), ryegrass, Italian (Italian ryegrass, Lolium multiflorum), dayflower, VA (Virginia dayflower, Commelina virginica), field bindweed (Convolvulus arvensis), morningglory (Ipomoea coccinea), nightshade (eastern black nightshade, Solanum ptycanthum), kochia (Kochia scoparia), nutsedge, yellow (yellow nutsedge, Cyperus esculentus), cocklebur (common cocklebur, Xanthium strumarium), smartweed (ladysthumb smartweed, Polygonum Persicaria) and beggarticks (hairy beggarticks, Bidens pilosa), were planted into a silt loam soil and treated preemergence with test chemicals formulated in a non-phytotoxic solvent mixture which included a surfactant. Treated plants and controls were maintained in a greenhouse for 21 days, after which time all species were compared to controls and visually evaluated. Plant response ratings, summarized in Table E, are based on a scale of 0 to 100 where 0 is no effect and 100 is complete control. A dash (-) response means no test result.

Russian thistle = assay: Test C pre-/postemergence herbicide test; format: in vivo, Salsola kali; conditions: Preemergence
Excerpt: Seeds of plant species selected from blackgrass (Alopecurus myosuroides), ryegrass, Italian (Italian ryegrass, Lolium multiflorum), wheat (winter wheat, Triticum aestivum), galium (catchweed bedstraw, Galium aparine), corn (Zea mays), crabgrass, large (large crabgrass, Digitaria sanguinalis), foxtail, giant (giant foxtail, Setaria faberii), johnsongrass (Sorghum halepense), lambsquarters (Chenopodium album), morningglory (Ipomoea coccinea), nutsedge, yellow (yellow nutsedge, Cyperus esculentus), pigweed (Amaranthus retroflexus), ragweed (common ragweed, Ambrosia elatior), soybean (Glycine max), barnyardgrass (Echinochloa crus-galli), oilseed rape (Brassica napus), waterhemp (common waterhemp, Amaranthus rudis), kochia (Kochia scoparia), oat, wild (wild oat, Avena fatua), surinam grass (Brachiaria decumbens), foxtail, green (green foxtail, Setaria viridis), goosegrass (Eleusine indica), bromegrass, downy (downy bromegrass, Bromus tectorum), nightshade (eastern black nightshade, Solanum ptycanthum), cocklebur (common cocklebur, Xanthium strumarium), cupgrass, woolly (woolly cupgrass, Eriochloa villosa), bermudagrass (Cynodon dactylon), sunflower, (common oilseed sunflower, Helianthus annuus), Russian thistle (Salsola kali) and velvetleaf (Abutilon theophrasti) were planted into a blend of loam soil and sand and treated preemergence with test chemicals formulated in a non-phytotoxic solvent mixture which included a surfactant. At the same time, plants selected from these crop and weed species and also barley (winter barley, Hordeum vulgare), […]), chickweed (common chickweed, Stellaria media), deadnettle (henbit deadnettle, Lamium amplexicaule), and canarygrass (littleseed canarygrass, Phalaris minor) were planted in pots containing Redi-Earth® planting medium (Scotts Company, 14111 Scottslawn Road, Marysville, Ohio 43041) comprising spaghnum peat moss, vermiculite, wetting agent and starter nutrients and treated with postemergence applications of test chemicals formulated in the same manner. Plants ranged in height from 2 to 18 cm (1- to 4-leaf stage) for postemergence treatments. Treated plants and controls were maintained in a greenhouse for 13 to 15 days, after which time all species were compared to controls and visually evaluated. Plant response ratings, summarized in Table C, are based on a scale of 0 to 100 where 0 is no effect and 100 is complete control. A dash (-) response means no test result.

[1] = 31 g ai/ha, scale 0 (no effect) to 100 (complete control)
[2] = 62 g ai/ha, scale 0 to 100 (0 no effect, 100 complete control)
[3] = 125 g ai/ha, scale 0 to 100 (0 no effect, 100 complete control)
[4] = 250 g ai/ha, scale 0 to 100 (0 no effect, 100 complete control)

| SMILES | Plant response rating, Flatsedge, Rice (flatsedge, rice; 125 g ai/ha) | Plant response rating, Flatsedge, Rice (flatsedge, rice; 250 g ai/ha) | Plant response rating, Flatsedge, Rice (flatsedge, rice; 500 g ai/ha) | Plant response rating, Windgrass (windgrass; [1]) | Plant response rating, Windgrass (windgrass; [2]) | Plant response rating, Windgrass (windgrass; [3]) | Plant response rating, Windgrass (windgrass; [4]) | Plant response rating, Cocklebur (cocklebur; 62 g ai/ha) | Plant response rating, Cocklebur (cocklebur; 125 g ai/ha) | Plant response rating, Cocklebur (cocklebur; 250 g ai/ha) | Plant response rating, Russian Thistle (Russian thistle; 62 g ai/ha, scale 0 to 100) | also measured |
| --- | --- | --- | --- | --- | --- | --- | --- | --- | --- | --- | --- | --- |
| CN1CC(c2ccc(F)c(F)c2)C(C(=O)Nc2cccc(F)c2F)C1=O (centres unmarked) [Compound 303] | 0 | 0 | 0 | – | – | – | – | – | – | – | – | Plant response rating, Flatsedge, Rice (flatsedge, rice; 62 g ai/ha): 0 |
| O=C1NCC(c2ccc(Cl)c(F)c2)C1C(=O)Nc1cccc(F)c1F (centres unmarked) [Compound 52] | – | – | – | 0 | 0 | 20 | 20 | – | – | – | – | – |
| O=C1NC[C@H](c2cccc(C(F)(F)F)c2)[C@H]1C(=O)Nc1cccc(F)c1F [Compound 206] | – | – | – | – | – | – | – | 0 | 0 | 0 | – | Plant response rating, Cocklebur (cocklebur; 31 g ai/ha): 0 |
| O=C1NCC(c2ccc(Cl)c(Cl)c2)C1C(=O)Nc1ccccc1F (racemic) [Compound 14] | – | – | – | – | – | – | – | 0 | 0 | 0 | 0 | Plant response rating, Russian Thistle (Russian thistle; [3]): 0 |
| O=C1NCC(c2cc(F)c(F)cc2F)C1C(=O)Nc1cccc(F)c1F (centres unmarked) [Compound 50] | – | – | – | 0 | 0 | 0 | 0 | – | – | – | – | – |
| O=C1NCC(c2ccc(C(F)(F)F)cc2)C1C(=O)Nc1cccc(F)c1F (centres unmarked) [Compound 80, N-(2,3-difluorophenyl)-2-oxo-4-[4-(trifluoromethyl)phenyl]-3-pyrrolidinecarboxamide] | – | – | – | – | – | – | – | 0 | 0 | 0 | – | Plant response rating, Cocklebur (cocklebur; 16 g ai/ha): 0 |
| O=C1NCC(c2ccc(F)c(Cl)c2)C1C(=O)Nc1ccccc1F (centres unmarked) [Compound 60] | – | – | – | 0 | 0 | 0 | – | – | – | – | 50 | Plant response rating, Russian Thistle (Russian thistle; [3]): 60 |
| O=C1NCCC1C(=O)N(c1ccc(F)c(F)c1)c1ccccc1F (centres unmarked) [Compound 5, N-(3,4-difluorophenyl)-N-(2-fluorophenyl)-2-oxo-3-pyrrolidinecarboxamide] | 0 | 0 | 0 | – | – | – | – | – | – | – | 0 | Plant response rating, Flatsedge, Rice (flatsedge, rice; 1000 g ai/ha): 0; Plant response rating, Flatsedge, Rice (flatsedge, rice; 2000 g ai/ha): 0 |
| O=C1NCC(c2ccc(F)c(F)c2)C1C(=O)Nc1cccc(F)c1F (centres unmarked) [Compound 17, N-(2,3-difluorophenyl)-4-(3,4-difluorophenyl)-2-oxo-3-pyrrolidinecarboxamide] | 20 | 20 | 20 | 0 | 0 | 0 | 0 | 0 | 0 | – | – | Plant response rating, Cocklebur (cocklebur; 16 g ai/ha): 0; Plant response rating, Cocklebur (cocklebur; 31 g ai/ha): 0; Plant response rating, Flatsedge, Rice (flatsedge, rice; 1000 g ai/ha): 35; Plant response rating, Flatsedge, Rice (flatsedge, rice; 2000 g ai/ha): 40 |
| O=C1NCC(c2cc(F)c(F)c(F)c2)C1C(=O)Nc1cccc(F)c1F (centres unmarked) [Compound 48] | – | – | – | 0 | 0 | 0 | – | – | – | – | – | Plant response rating, Windgrass (windgrass; 16 g ai/ha, scale 0 to 100 (0 no effect, 100 complete control)): 0 |

From US10294202B2, “Pyrrolidinones as herbicides” (FMC Corporation, priority 2013, dated 2019)
